# Test results reported in patent US20170137458A1, “OXYSTEROLS FOR USE IN THE TREATMENT AND PREVENTION OF DISEASES CAUSED BY VIRUSES” (priority 2014, published 2017).
# Like-named read-outs stand apart in the source and are kept apart here.
# Tests used:
# human rotavirus HRV 408 = assay: Infectivity assay for rotavirus, MA104 cells, strain HRV 408
# Experimental: (§2) The strains of human rotavirus Wa (ATCC® VR-2018), WI61 (ATCC® VR-2551), HRV 408 (ATCC® VR-2273), HRV 248 (ATCC® VR-2274) and DS-1 (ATCC® VR-2550) were acquired from the American Tissue Culture Collection (ATCC); the viruses were activated with 5 μg/ml porcine pancreatic trypsin of type IX (Sigma, St. Louis, Mo.) for 30 minutes at 37° C. and propagated in MA104 cells using MEM containing 0.5 μg of trypsin per ml as described previously (27).
# (§3) The antiviral effectiveness of the oxysterols of the invention was determined by means of infectivity inhibition assay. The assays were performed with confluent monolayers of MA104 cells seeded in plates with 96 wells, as described previously (28). […] The control samples were prepared by treating the cells with culture medium with the addition of equal volumes of ethanol. The cells were then washed with medium, and the rotavirus infection was performed at a multiplicity of infection (MOI) of 0.02. After the infection, the cells were washed with medium and incubated at 37° C. in an incubator humidified at 5% (vol/vol) CO2-95% (vol/vol) of air. After 16 hours, the infected cells were fixed with a cold acetone-methanol mixture (50:50), and the virus titres were determined by means of indirect immunocytochemistry. The inhibition of the virus infectivity was expressed as a percentage comparing the mean number of infective events in the treated and non-treated samples±the standard deviations. Where possible, the values of the oxysterol concentrations able to determine 50% or 90% of the antiviral effect (EC50 and EC90 respectively) were calculated by means of regression analysis using the dose-response curves generated by the experimental data, with the use of PRISM 5.00 (GraphPad Software, San Diego, Calif., USA).
# human rotavirus WI61 = assay: Infectivity assay for rotavirus, MA104 cells, strain WI61
# Experimental: as §2, §3
# human rhinovirus 1A [1] = assay: Rhinovirus yield reduction assay; settings: HeLa cells, 5.6 μM after infection, collected 5 days after the infection
# Experimental: Each well was inoculated with 200 μl of a stock of human rhinovirus 1A containing approximately 30 PFU per well and incubated for 1 hour. […] The infected cells and the supernatants were collected 5 days after the infection (when a complete CPE was visible), and titred by means of the standard plaque method, as described above.
# human rotavirus [2] = assay: Target identification by siRNA sensitization (TISS), human rotavirus, Caco2 cells; settings: oxysterol at its EC50
# Experimental: This mechanism of action vis-à-vis the rotavirus was therefore investigated, performing a target identification assay by means of sensitization with short interfering RNA (siRNA). The Caco2 cells (for the experiments with human rotavirus) or the HeLa cells (for the experiments with human papillomavirus) were seeded in a plate with 24 wells; during seeding, the cells were transfected with siRNA specific for OSBP and VAPA (at a concentration of 20 nM). […] After one day, the medium was removed and the cells inoculated with the respective viruses in the same time, temperature and MOI conditions described in the protocols of the infectivity or neutralization assays. The number of infected cells was evaluated as described in the preceding paragraphs.
# human rotavirus HRV 248 = assay: Infectivity assay for rotavirus, MA104 cells, strain HRV 248
# Experimental: as §2, §3
# TLR3 = assay: Quantitative real time RT-PCR of TLR-3 in Caco2 cells; assay type: cell-based, human; settings: CaCo2 intestinal cells, 1.9 μM, 30 minutes to 6 hours
# Experimental: The Caco2 cells were cultivated in DMEM medium containing 10% serum and seeded in 25 cm^2 flasks (8 million confluence cells). The next day the cells were treated, in DMEM medium containing 2% serum, with 1.9 μM 25OHC or 27OHC (dissolved in ethanol) for 30 minutes, 1, 2, 3, 4, 5 or 6 hours. Extraction of the total RNA was performed using the TRIzol Reagent (Applied Biosystems, Monza, Italy) and the quantity and purity (A260/A280 ratio) of the extracted RNA were spectrophotometrically measured. Subsequently, 2 μg of RNA were retrotranscribed using the High-Capacity cDNA Reverse Transcription Kit (Applied Biosystems). Quantitative RT-PCR was performed with 30 ng of cDNA using the “TaqMan Gene Expression Assay kits” for TLR-3 and β-actin, TaqMan Fast Universal PCR Master Mix, and 7500 Fast Real-Time PCR System (Applied Biosystems). For each gene considered, the threshold cycle (Ct) was determined and the results were normalized using β-actin as a reference gene. The relative quantification was performed using a mathematical method previously published (29). In FIGS. 1a-1b, the results are reported as increment of the genic expression (Fold change, Fc) of the treated samples with respect to the controls.
# [3] = tested on: human rotavirus (strain Wa); assay: Rotavirus yield reduction assay; assay type: cell-based
# Experimental: The cells were treated at 37° C. with 25-, 27-, 7α-, 7β-hydroxycholesterol or 7-ketocholesterol at 5.6 μM for 20 hours, then washed with medium and infected with the human rotavirus at an MOI of 0.02 (strain Wa) activated with trypsin. After one hour, the cells were washed and fresh medium was added supplemented with 0.5 μg/ml of porcine trypsin. […] The assay was performed in triplicate and the results were confirmed on Caco2 cells. In an alternative protocol, the MA104 cells were treated with oxysterols—at the concentration indicated above—after the viral inoculum. The one-way variance analysis (ANOVA), followed by the Bonferroni test, was used to evaluate the statistical significance of the virus titre differences between the treated and non-treated samples. The significance was fixed at 95%.
# The results of the pre-treatment assays are illustrated in FIGS. 5 (MA104 cells) and 6 (Caco2 cells).
# rotavirus = assay: Rotavirus cell entry kinetics; assay type: cell-based; settings: MA104 cells; for entry of the rotavirus into the cells (infective events): 1.9 μM for 20 hours, MOI 0.02
# Experimental: To measure the entry speed of the rotavirus into the cells, confluent monolayers of MA104 cells (cultivated in plates with 96 wells) were treated with 25OHC, 27OHC or 7κC at 1.9 μM at 37° C.; after 20 hours, the cells were washed extensively with cold medium and left to cool on ice. […] The non-bound viruses were then eliminated by washing, medium was added at 37° C., and the plates were incubated at 37° C. in a humidified atmosphere. At fixed times (i.e. 0, 15, 30, 45, 60, 75 and 90 minutes after the virus-cell adhesion), the medium was extracted from the wells and the viral particles still present on the surface of the cells were eliminated by means of two rapid washing operations with EGTA 3 mM in PBS, followed by incubation in warm medium. After reaching the last time point (90 minutes from the virus-cell adhesion), the plates with 96 wells were placed in an incubator (37° C., 5% CO2), and the infection was left to proceed for a further 16 hours. The cells were then fixed and coloured as described above. The quantity of viral particles that entered the cells at each time point was compared with the quantity of virus that entered when no washing with EGTA was performed (100% entry). The ANOVA, followed by the Bonferroni test, was used to evaluate the statistical significance of the differences between the treated and non-treated samples. The significance was fixed at the level of 95%.
# As a control experiment, the same treatment and infection protocol was performed on MA104 cells, cultivated in a plate with 6 wells. In this experiment, after reaching the last time point of the entry measurement (90 minutes), the cells were lysed, the proteins extracted were denatured by boiling for 5 minutes, then separated by electrophoresis on sodium dodecylsulfate gel with 12% polyacrylamide (SDS-12%PAGE) and transferred to a polyvinylidene difluoride (PVDF) membrane. The protein of the intermediate capsid VP6 was detected using the murine monoclonal antibody 2B4 (mab0036-P, CovalAb) at a dilution 1:750, followed by secondary antibody IgG-HRP (Santa Cruz Biotechnology Inc.). The actin was detected using the anti-actin murine monoclonal antibody MAB1501R (Millipore), followed by antibody IgG-HRP (Santa Cruz Biotechnology Inc.). The density of the bands was compared using the ImageJ software, and the intensity of the actin bands was used to normalize the values. The ANOVA, followed by the Bonferroni test, was used to evaluate the statistical significance of the differences between the treated and the non-treated samples. The significance was fixed at the level of 95%. The results are reported in FIG. 11 and are expressed as a percentage, comparing treated cells with cells incubated with culture medium.
# human rotavirus Wa [4] = assay: Infectivity assay for rotavirus repeated on Caco2 cells, strain Wa; assay type: cell-based; settings: Caco-2
# Source text: The results of the antiviral assays performed treating with 25OHC and 27OHC were confirmed repeating the infectivity assays on Caco2 cells.
# HPV PsV (protein L1) = assay: Assay for adhesion of the papillomavirus to the cell surface: Western blot analysis; assay type: cell-based, human papillomavirus; settings: Hela cells treated 16 hours, PsV 4 hours at 4° C.
# Source text: L1 was detected using the murine monoclonal antibody (Ab30908, Abcam, Cambridge, UK) at a dilution of 1:2000, followed by secondary antibody IgG-HRP (Santa Cruz Biotechnology Inc.). The actin was detected using an anti-actin murine monoclonal antibody (MAB1501R, Millipore), followed by secondary antibody IgG-HRP (Santa Cruz Biotechnology Inc.).
# LXR = settings: cited from earlier work
# human rhinovirus 1A [5] = assay: Infectivity assay with rhinovirus (plaque count, HeLa cells)
# Experimental: The human rhinovirus 1A (ATCC® VR-1559) was acquired from ATCC. The virus was propagated in HeLa cells, at 33° C. with 5% of CO2. When the cytopathic effect (CPE) had fully developed, cells and supernatants were collected, frozen and thawed three times, clarified and divided into aliquots. The viruses were kept at −70° C. The rhinovirus titres were determined by means of the standard plaque assay. In short, the HeLa cells were seeded 2 days prior to the infection in plates with 96 wells, reaching 60%-70% confluence at the time of the infection. The viral suspension was serially diluted in DMEM supplemented with 2% fetal bovine serum and inoculated; the infected wells were incubated at 33° C. for 1 hour, allowing the viruses to adhere and enter the cells. The cells were subsequently washed with medium and covered with a 1:1 mixture of 1.6% SeaPlaque agarose (BioWhittaker Molecular Applications) and DMEM 2X [26.76 g DMEM (Gibco BRL), 20 ml of L-glutamine (Gibco BRL), 4.4 g of sodium bicarbonate (Sigma, St. Louis, Mo.), FBS 40 ml (Sigma, St. Louis, Mo.) and 1000 ml of water]. The plates were incubated at 33° C. for 3 days. At the end of the incubation, the plates were fixed with 7.5% formaldehyde (Fluka) and coloured with crystal violet (Sigma, St. Louis, Mo.). The number of plaques formed was then counted; the virus titres were expressed in terms of plaque-forming units per ml (PFU/ml).
# The HeLa cells, kept in DMEM supplemented with 10% FBS and 1% Zell Shield, were seeded (at 8×10^4 cells/well) in plates with 24 wells. The medium was removed and the cells were infected with 200 microlitres/well containing approximately 30 PFU of a stock of human rhinovirus 1A. The infected cells were incubated at 33° C. for 1 h, allowing the virus to adhere and enter the cells. […] The plates were incubated at 33° C. for 5 days. After the incubation, the plates were fixed with formaldehyde at 7.5% (Fluka), coloured with crystal violet (Sigma, St. Louis, Mo.) and the number of plaques formed was counted. The oxysterol concentration values able to determine 50% or 90% of the antiviral effect (EC50 and EC90 respectively) were calculated by means of regression analysis using the dose-response curves generated by the experimental data, using PRISM 5.00 (GraphPad Software, San Diego, Calif., USA).
# TLR4 = settings: cited from earlier work
# human rotavirus Wa [6] = assay: Infectivity assay for rotavirus, MA104 cells, strain Wa
# Experimental: as §2, §3
# PsV of HPV-16 = assay: microbe, parasite or virus in culture; assay type: cell-based, human papillomavirus
# human rotavirus DS-1 = assay: Infectivity assay for rotavirus, MA104 cells, strain DS-1
# Experimental: as §2, §3
# human papillomavirus = assay: Antiviral assay with U18666A, papillomavirus, HeLa cells; assay type: cell-based; settings: HeLa cells treated 20 hours
# Experimental: (§1) According to the hypothesis formulated previously, the oxysterols determine an accumulation of the intracellular cholesterol at endosomal level, inhibiting entry of the rotavirus. […] U18666A is an amphipathic steroid, widely used to block the intracellular transport of cholesterol, with consequent accumulation of the same at the level of the endosome membranes (31). In short, antiviral assays were performed treating the MA104 cells (for the rotavirus) or HeLa cells (for the papillomavirus) for 20 hours with scalar concentrations of U18666A (0.07 to 50 μM) and then infecting for one hour with the respective viruses. The effect of the treatment on the infectivity of the two viral models was evaluated as described previously. […] The experiment described therefore constitutes solid proof of the principle of the mechanism of action proposed.
# human rotavirus [7] = assay: Antiviral assay with U18666A, rotavirus, MA104 cells; assay type: cell-based; settings: MA104 cells treated 20 hours, 0.07 to 50 μM
# Experimental: as §1
# [8] = Caco2 cells, pre-treatment 5.6 μM for 20 hours, collected 48 hours after infection
# [9] = MA104 cells, post-infection treatment 5.6 μM
# [10] = MA104 cells, pre-treatment 5.6 μM for 20 hours, collected 48 hours after infection
# [11] = pre-treatment assay, 20 hours prior to the infection
smiles,measurement,setting,value
"C[C@@H](CO)CCC[C@@H](C)[C@H]1CC[C@H]2[C@@H]3CC=C4C[C@@H](O)CC[C@]4(C)[C@H]3CC[C@]12C [27OHC, 27-hydroxycholesterol]",EC50,human rotavirus HRV 408,400 nM
same,EC90,human rotavirus HRV 408,4560 nM
same,EC50,human rotavirus WI61,190 nM
same,EC90,human rotavirus WI61,740 nM
same,production of viral progenies,human rhinovirus 1A [1],totally inhibit the production of viral progenies
same,antiviral activity in cells with OSBP silenced,human rotavirus [2]; OSBP siRNA 20 nM,higher
same,antiviral activity in cells with VAP-A silenced,human rotavirus [2]; VAPA siRNA 20 nM,higher
same,EC50,human rotavirus HRV 248,230 nM
same,EC90,human rotavirus HRV 248,3840 nM
same,TLR3 expression,TLR3,marked hyperexpression of TLR3
same,production of virus progenies,[3]; [8],significantly limit (p<0.05) the production of virus progenies
same,production of virus progenies,[3]; [9],confirm the in vitro effectiveness
same,production of virus progenies,[3]; [10],significantly limit (p<0.05) the production of virus progenies
same,entry of the rotavirus into the cells (infective events),rotavirus,"able to limit the entry of the viral particles into the cells, shows a lesser effectiveness"
same,viral antigen VP6 within the cells (Western blot),rotavirus; 90 minutes after virus-cell adhesion,significantly (p<0.05) lower quantity than the non-treated control
same,EC50,human rotavirus Wa [4],440 nM
same,EC90,human rotavirus Wa [4],2500 nM
same,adhesion of the PsV to the cell surface (L1 Western blot),HPV PsV (protein L1),not able to inhibit adhesion of the PsV to the cell surface
same,LXR ligand activity,LXR,optimal ligands of LXR
same,EC50,human rhinovirus 1A [5]; post-infection treatment assay,480 nM
same,EC90,human rhinovirus 1A [5]; post-infection treatment assay,1270 nM
same,EC50,human rhinovirus 1A [5]; [11],620 nM
same,EC90,human rhinovirus 1A [5]; [11],2170 nM
same,induction of TLR4,TLR4; SH-SY5Y neuroblastoma cells,active in inducing TLR4
same,induction of TLR4,TLR4; macrophage cell lines,active in inducing TLR4
same,EC50,human rotavirus Wa [6],260 nM
same,EC90,human rotavirus Wa [6],1730 nM
same,EC50,"PsV of HPV-16; C33A cells, treated 16 hours before PsV, read-out: EC50",6870 nM
same,EC50,"PsV of HPV-16; Human papillomavirus, HeLa",9330 nM
same,EC50,"PsV of HPV-16; Human papillomavirus, SiHa",28900 nM
same,EC50,human rotavirus DS-1,720 nM
same,EC90,human rotavirus DS-1,5850 nM
CCN(CC)CCO[C@H]1CC[C@@]2(C)C(=CC[C@@H]3[C@@H]2CC[C@]2(C)C(=O)CC[C@@H]32)C1 [U18666A],EC50,human papillomavirus,1740 nM
same,inhibition of rotavirus infectivity,human rotavirus [7],antiviral activity is so high that calculation of the EC50 is not possible
"CC(C)CCC[C@@H](C)[C@H]1CC[C@H]2[C@@H]3[C@H](O)C=C4C[C@@H](O)CC[C@]4(C)[C@H]3CC[C@]12C [7αOHC, 7alpha-hydroxycholesterol]",production of virus progenies,[3]; [9],antiviral activity
same,inhibition of the infectivity of HPV,PsV of HPV-16,not able to inhibit the infectivity of HPV
"CC(C)C(O)CC[C@@H](C)[C@H]1CC[C@H]2[C@@H]3CC=C4C[C@@H](O)CC[C@]4(C)[C@H]3CC[C@]12C (stereo partly shown) [24OHC, 24-hydroxycholesterol]",EC50,human rhinovirus 1A [5]; [11],770 nM
same,EC90,human rhinovirus 1A [5]; [11],3100 nM
same,EC50,human rotavirus Wa [6],390 nM
same,EC90,human rotavirus Wa [6],1600 nM
same,EC50,"PsV of HPV-16; Human papillomavirus, HeLa",4380 nM
"CC(C)CCC[C@@H](C)[C@H]1CC[C@H]2[C@@H]3C(=O)C=C4C[C@@H](O)CC[C@]4(C)[C@H]3CC[C@]12C [7κC, 7-ketocholesterol]",production of virus progenies,[3]; [8],significantly limit (p<0.05) the production of virus progenies
same,production of virus progenies,[3]; [9],antiviral activity
same,production of virus progenies,[3]; [10],significantly limit (p<0.05) the production of virus progenies
same,entry of the rotavirus into the cells (infective events),rotavirus,does not cause a significant reduction (p>0.05) in the number of infective events
same,LXR ligand activity,LXR,no ligand activity
"CC(C)CCC[C@@H](C)[C@H]1CC[C@H]2[C@@H]3[C@@H](O)C=C4C[C@@H](O)CC[C@]4(C)[C@H]3CC[C@]12C [7βOHC, 7β-hydroxycholesterol]",production of virus progenies,[3]; [9],antiviral activity
same,production of virus progenies,[3]; [10],significant (P<0.05) antiviral activity
same,induction of TLR4,TLR4; SH-SY5Y neuroblastoma cells,active in inducing TLR4
